Experimental data as given in US12435068B2, “Anthelmintic compounds” (Elanco Animal Health GmBh, priority 2018, dated 2025).
Converted amounts (≈) assume the structure as drawn.

What was measured:
[1] = test system: Dirofilaria immitis microfilariae; assay: In Vitro Assay 2: Dirofilaria immitis microfilariae (DIROIM L1) motility; type: cell-based; conditions: 72 h, read-out: EC50 ppm
[2] = target: C. elegans Slo-1a (Caenorhabditis elegans, UniProt Q95V25)
Procedure: Cells were cultured at 37° C. and 5% CO2 in MEMalpha with Gutamax I (Invitrogen, Nr.: 32571), supplemented with 10% (v/v) heat inactivated fetal bovine serum (Invitrogen, Nr.: 10500), G418 (1 mg/ml, Invitrogen, Nr.: 10131). Cells were detached using Accutase (Sigma, Nr.: A6964).
Membrane Potential Measurements
Laboratory compound testing was performed on 384-well microtiter plates (MTPs, Greiner, Nr.: 781092). 8000 cells/well were plated onto 384-well MTPs and cultured for 20 to 24 hours at 37° C. and 5% CO2. After removal of the cell culture medium, the cells were washed once with tyrode (150 mM NaCl, 0.3 mM KCl, 2 mM CaCl2, 1 mM MgCl2, 0.8 mM NaH2PO4, 5 mM Glucose, 28 mM Hepes, pH 7.4) and then loaded with the voltage sensitive dye of the Membrane Potential Assay Kit diluted in tyrode for 1 h at room temperature.
After starting the measurement of fluorescence using a FLIPR Tetra (Molecular Devices, Exc. 510-545 nm, Emm. 565-625 nm), test compounds were added followed by the addition of KCl tyrode (final assay concentration: 70 mM KCl, 2 mM CaCl2, 1 mM MgCl2, 0.8 mM NaH2PO4, 5 mM Glucose, 28 mM Hepes, pH 7.4, including the voltage sensitive dye). The measurement was completed after 7 minutes.

[3] = test system: Dirofilaria immitis larvae; assay: In Vitro Assay 3: Dirofilaria immitis (DIROIM L4) larval motility; type: cell-based; conditions: 72 h, read-out: EC50 ppm

Chain of C. elegans Slo-1a (Q95V25 whole entry): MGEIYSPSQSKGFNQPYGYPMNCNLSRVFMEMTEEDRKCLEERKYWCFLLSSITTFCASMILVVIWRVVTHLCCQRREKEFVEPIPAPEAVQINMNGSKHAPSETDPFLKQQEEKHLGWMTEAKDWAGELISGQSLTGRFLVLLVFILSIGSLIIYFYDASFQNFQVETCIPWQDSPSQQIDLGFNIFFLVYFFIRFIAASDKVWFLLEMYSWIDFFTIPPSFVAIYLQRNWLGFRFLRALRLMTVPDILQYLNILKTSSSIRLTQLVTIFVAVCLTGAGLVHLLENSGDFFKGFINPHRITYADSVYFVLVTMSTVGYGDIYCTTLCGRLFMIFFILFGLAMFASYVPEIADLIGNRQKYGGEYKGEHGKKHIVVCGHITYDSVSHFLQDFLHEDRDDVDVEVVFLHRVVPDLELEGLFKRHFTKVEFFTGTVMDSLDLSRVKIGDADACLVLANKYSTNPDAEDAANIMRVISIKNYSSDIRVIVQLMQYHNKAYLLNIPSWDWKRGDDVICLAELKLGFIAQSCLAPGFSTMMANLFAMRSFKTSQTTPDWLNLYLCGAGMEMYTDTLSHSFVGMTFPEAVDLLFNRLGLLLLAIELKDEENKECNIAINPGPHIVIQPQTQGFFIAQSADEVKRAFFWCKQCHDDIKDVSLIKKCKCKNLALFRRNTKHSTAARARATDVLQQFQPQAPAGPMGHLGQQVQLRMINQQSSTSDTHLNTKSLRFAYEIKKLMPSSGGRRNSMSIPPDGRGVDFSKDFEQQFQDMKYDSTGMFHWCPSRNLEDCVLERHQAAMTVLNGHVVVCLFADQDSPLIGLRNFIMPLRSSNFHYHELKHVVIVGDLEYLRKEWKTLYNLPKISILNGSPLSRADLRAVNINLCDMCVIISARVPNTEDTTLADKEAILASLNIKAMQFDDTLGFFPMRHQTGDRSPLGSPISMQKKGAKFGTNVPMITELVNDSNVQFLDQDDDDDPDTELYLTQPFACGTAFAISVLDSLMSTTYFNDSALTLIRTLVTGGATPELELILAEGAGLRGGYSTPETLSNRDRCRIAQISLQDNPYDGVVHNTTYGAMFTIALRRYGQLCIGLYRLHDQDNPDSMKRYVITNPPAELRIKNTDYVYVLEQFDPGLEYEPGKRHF

SMILES | EC50 [1] | EC50 [2] | EC50 [3]
CC(C)C1=C(C(=O)N[C@H]2CCOc3ccccc32)COc2c1cccc2-c1cc(Cl)cc(Cl)c1 [Example Compound S8a-1, 8-(3,5-Dichlorophenyl)-N-[(4S)-3,4-dihydro-2H-chromen-4-yl]-4-(propan-2-yl)-2H-chromene-3-carboxamide] | < 0.0032 µg/mL | 3.16 nM | 0.04 µg/mL (≈ 0.0809 µM)
CC(C)c1c(C(=O)N[C@H]2CCOc3ccccc32)c(=O)oc2c(-c3cc(Cl)cc(Cl)c3)cccc12 [Example Compound S8a-2, 8-(3,5-Dichlorophenyl)-N-[(4S)-3,4-dihydro-2H-chromen-4-yl]-2-oxo-4-(propan-2-yl)-2H-chromene-3-carboxamide] | < 0.0032 µg/mL | 1.26 nM | 0.18 µg/mL (≈ 0.354 µM)
O=C(N[C@H]1CCOc2ccccc21)C1=Cc2cccc(-c3cccc(Cl)c3Cl)c2OC1 [Example Compound S8a-5, 8-(2,3-Dichlorophenyl)-N-[(4S)-3,4-dihydro-2H-chromen-4-yl]-2H-chromene-3-carboxamide] | 0.09 µg/mL (≈ 0.199 µM) | 5.01 nM | 0.04 µg/mL (≈ 0.0884 µM)
CC1=C(C(=O)N[C@H]2CCCc3ccccc32)C(C)c2cccc(-c3cc(F)cc(F)c3F)c2O1 (stereo partly drawn) [Example Compound S8b-2, 2,4-Dimethyl-N-[(1S)-1,2,3,4-tetrahydronaphthalen-1-yl]-8-(2,3,5-trifluorophenyl)-4H-chromene-3-carboxamide] | 0.08 µg/mL (≈ 0.173 µM) | > 50100 nM | 1.26 µg/mL (≈ 2.72 µM)
